Experimental data reported in the kinase profiling compilation of Christmann-Franck et al. (2016).

Tests used:
Assay in all cases: radiometric filter-binding kinase assay, Kinase HotSpot
Settings in all cases: compound 0.5 µM; ATP 10 µM
[1] = biological target: NEK7 (human) (UniProt Q8TDX7)
[2] = biological target: GSK3B (human) (UniProt P49841)
[3] = biological target: FRK (human) (UniProt P42685)
[4] = biological target: NTRK2 (human) (UniProt Q16620)
[5] = biological target: NUAK1 (human) (UniProt O60285)
[6] = biological target: PRKACA (human) (UniProt P17612)
[7] = biological target: MAPK14 (human) (UniProt Q16539)
Sequence of MAPK14 (human) (Q16539 whole entry, looked up): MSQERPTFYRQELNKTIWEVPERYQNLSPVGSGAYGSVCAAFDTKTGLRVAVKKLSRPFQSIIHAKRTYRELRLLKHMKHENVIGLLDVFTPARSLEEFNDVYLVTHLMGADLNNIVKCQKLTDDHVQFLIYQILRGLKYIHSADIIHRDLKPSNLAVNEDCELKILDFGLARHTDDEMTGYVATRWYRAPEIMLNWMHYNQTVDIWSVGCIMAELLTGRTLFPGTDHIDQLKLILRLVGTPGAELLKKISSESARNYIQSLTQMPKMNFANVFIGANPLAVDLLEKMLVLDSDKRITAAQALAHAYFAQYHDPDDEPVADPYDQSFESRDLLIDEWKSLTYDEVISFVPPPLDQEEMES

[8] = biological target: ACVR1B (human) (UniProt P36896)
[9] = biological target: MKNK2 (human) (UniProt Q9HBH9)
[10] = biological target: SRPK2 (human) (UniProt P78362)
[11] = biological target: STK16 (human) (UniProt O75716)
[12] = biological target: TSSK2 (human) (UniProt Q96PF2)
[13] = biological target: PIM1 (human) (UniProt P11309)
[14] = biological target: JAK2 JH1 JH2 (human) (UniProt O60674)
[15] = biological target: BRSK2 (human) (UniProt Q8IWQ3)
[16] = biological target: MARK4 (human) (UniProt Q96L34)
[17] = biological target: WNK2 (human) (UniProt Q9Y3S1)
[18] = biological target: MAP4K4 (human) (UniProt O95819)
[19] = biological target: NLK (human) (UniProt Q9UBE8)
[20] = biological target: IRAK4 (human) (UniProt Q9NWZ3)
[21] = biological target: HIPK3 (human) (UniProt Q9H422)
[22] = biological target: PASK (human) (UniProt Q96RG2)
[23] = biological target: SGK2 (human) (UniProt Q9HBY8)
[24] = biological target: PIM2 (human) (UniProt Q9P1W9)
Sequence of PIM2 (human) (Q9P1W9 whole entry, looked up): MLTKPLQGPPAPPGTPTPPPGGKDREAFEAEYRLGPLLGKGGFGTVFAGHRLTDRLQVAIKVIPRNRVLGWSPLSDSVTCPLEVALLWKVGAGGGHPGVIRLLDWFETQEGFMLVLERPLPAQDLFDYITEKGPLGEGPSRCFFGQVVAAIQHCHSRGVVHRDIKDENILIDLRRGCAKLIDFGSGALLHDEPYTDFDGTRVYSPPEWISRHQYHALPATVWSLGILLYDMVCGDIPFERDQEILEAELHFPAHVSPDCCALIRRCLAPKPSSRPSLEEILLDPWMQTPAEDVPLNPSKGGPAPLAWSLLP

[25] = biological target: CSNK1D (human) (UniProt P48730)
Sequence of CSNK1D (human) (P48730 whole entry, looked up): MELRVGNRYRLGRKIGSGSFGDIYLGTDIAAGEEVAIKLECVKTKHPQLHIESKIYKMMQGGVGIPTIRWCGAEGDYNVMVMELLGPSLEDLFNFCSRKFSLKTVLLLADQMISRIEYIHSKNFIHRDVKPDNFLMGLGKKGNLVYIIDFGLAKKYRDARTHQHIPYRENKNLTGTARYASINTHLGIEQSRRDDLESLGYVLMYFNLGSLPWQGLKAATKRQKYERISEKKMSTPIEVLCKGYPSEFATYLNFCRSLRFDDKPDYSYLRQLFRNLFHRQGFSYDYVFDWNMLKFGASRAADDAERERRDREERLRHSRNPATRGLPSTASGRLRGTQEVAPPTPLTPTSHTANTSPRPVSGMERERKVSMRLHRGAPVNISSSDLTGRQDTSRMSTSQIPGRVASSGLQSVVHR

[26] = biological target: CAMK2D (human) (UniProt Q13557)
[27] = biological target: MAP3K11 (human) (UniProt Q16584)
Sequence of MAP3K11 (human) (Q16584 whole entry, looked up): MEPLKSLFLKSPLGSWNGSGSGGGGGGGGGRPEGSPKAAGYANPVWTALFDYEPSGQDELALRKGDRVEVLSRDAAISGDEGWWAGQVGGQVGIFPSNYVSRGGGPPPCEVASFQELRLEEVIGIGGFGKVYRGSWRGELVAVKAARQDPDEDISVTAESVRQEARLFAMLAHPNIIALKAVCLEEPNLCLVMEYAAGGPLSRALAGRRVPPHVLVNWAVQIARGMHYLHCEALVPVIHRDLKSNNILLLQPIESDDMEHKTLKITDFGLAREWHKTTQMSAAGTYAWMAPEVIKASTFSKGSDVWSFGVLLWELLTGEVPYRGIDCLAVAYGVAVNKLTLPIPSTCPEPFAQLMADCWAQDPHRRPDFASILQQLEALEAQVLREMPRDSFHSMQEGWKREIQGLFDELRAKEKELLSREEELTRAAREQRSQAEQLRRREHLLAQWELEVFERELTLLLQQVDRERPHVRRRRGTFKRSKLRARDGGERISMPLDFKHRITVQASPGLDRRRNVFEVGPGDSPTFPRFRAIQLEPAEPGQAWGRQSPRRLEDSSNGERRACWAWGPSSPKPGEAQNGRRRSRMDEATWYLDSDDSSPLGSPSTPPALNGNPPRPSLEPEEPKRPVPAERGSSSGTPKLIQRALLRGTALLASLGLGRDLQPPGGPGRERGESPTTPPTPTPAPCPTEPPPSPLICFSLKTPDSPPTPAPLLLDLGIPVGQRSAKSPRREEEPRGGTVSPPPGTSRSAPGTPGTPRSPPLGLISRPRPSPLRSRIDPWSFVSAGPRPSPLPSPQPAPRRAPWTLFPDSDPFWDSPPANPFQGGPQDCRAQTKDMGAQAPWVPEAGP

[28] = biological target: JAK3 JH1 JH2 (human) (UniProt P52333)
[29] = biological target: ULK2 (human) (UniProt Q8IYT8)
Sequence of ULK2 (human) (Q8IYT8 whole entry, looked up): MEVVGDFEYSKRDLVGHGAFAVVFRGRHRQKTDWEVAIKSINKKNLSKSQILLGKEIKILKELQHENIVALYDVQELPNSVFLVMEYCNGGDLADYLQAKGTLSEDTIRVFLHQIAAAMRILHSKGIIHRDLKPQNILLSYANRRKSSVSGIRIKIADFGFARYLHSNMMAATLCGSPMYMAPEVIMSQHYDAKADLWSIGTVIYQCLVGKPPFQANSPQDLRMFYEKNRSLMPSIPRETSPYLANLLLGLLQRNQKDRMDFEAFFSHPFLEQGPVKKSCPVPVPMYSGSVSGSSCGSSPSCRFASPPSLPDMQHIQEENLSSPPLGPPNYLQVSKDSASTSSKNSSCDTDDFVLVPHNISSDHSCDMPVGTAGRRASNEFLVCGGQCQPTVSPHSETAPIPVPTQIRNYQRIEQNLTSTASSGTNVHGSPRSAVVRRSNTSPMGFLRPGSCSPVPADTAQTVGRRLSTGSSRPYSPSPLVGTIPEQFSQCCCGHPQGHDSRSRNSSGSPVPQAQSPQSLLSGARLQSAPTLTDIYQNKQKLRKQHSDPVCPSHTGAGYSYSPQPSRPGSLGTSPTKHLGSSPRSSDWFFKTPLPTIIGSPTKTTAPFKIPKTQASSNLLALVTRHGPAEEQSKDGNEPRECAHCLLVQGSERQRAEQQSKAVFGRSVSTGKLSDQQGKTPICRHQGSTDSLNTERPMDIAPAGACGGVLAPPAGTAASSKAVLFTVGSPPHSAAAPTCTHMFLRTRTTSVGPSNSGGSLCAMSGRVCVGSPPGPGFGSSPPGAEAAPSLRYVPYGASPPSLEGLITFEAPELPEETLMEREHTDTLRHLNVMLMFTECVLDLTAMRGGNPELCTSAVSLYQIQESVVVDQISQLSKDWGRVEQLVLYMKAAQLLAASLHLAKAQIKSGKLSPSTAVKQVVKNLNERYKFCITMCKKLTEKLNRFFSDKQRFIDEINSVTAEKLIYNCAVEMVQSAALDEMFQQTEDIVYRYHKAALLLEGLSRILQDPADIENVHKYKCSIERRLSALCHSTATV

[30] = biological target: MAP3K9 (human) (UniProt P80192)
[31] = biological target: TYRO3 (human) (UniProt Q06418)
[32] = biological target: ADRBK2 (human) (UniProt P35626)
Sequence of ADRBK2 (human) (P35626 whole entry, looked up): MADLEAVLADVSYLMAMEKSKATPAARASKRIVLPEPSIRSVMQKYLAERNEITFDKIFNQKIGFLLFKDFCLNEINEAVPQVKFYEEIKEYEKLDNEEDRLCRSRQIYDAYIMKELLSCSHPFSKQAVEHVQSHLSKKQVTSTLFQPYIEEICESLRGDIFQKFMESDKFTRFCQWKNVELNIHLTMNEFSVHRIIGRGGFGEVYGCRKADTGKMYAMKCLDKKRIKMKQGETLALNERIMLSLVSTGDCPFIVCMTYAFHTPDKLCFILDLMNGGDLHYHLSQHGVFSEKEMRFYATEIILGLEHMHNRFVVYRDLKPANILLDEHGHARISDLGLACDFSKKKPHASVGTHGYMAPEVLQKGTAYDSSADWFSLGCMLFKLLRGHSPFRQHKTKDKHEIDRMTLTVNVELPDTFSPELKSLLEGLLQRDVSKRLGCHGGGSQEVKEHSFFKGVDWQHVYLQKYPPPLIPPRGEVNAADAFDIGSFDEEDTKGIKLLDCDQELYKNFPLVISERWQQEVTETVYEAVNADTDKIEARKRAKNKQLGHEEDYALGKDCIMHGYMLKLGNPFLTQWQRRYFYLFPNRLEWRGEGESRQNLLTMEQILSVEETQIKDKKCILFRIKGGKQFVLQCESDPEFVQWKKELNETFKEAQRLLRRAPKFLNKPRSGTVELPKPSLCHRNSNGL

[33] = biological target: DAPK2 (human) (UniProt Q9UIK4)
Sequence of DAPK2 (human) (Q9UIK4 whole entry, looked up): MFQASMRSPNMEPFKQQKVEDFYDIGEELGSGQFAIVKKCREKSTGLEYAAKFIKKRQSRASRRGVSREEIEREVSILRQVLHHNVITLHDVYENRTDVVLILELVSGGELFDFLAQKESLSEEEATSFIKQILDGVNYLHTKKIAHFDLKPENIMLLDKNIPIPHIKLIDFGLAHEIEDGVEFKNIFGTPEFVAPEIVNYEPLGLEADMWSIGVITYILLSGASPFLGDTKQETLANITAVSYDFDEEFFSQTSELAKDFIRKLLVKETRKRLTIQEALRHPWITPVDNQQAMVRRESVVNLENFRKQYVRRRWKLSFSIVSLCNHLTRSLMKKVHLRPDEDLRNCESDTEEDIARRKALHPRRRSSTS

[34] = biological target: CLK4 (human) (UniProt Q9HAZ1)
[35] = biological target: FGR (human) (UniProt P09769)
Sequence of FGR (human) (P09769 whole entry, looked up): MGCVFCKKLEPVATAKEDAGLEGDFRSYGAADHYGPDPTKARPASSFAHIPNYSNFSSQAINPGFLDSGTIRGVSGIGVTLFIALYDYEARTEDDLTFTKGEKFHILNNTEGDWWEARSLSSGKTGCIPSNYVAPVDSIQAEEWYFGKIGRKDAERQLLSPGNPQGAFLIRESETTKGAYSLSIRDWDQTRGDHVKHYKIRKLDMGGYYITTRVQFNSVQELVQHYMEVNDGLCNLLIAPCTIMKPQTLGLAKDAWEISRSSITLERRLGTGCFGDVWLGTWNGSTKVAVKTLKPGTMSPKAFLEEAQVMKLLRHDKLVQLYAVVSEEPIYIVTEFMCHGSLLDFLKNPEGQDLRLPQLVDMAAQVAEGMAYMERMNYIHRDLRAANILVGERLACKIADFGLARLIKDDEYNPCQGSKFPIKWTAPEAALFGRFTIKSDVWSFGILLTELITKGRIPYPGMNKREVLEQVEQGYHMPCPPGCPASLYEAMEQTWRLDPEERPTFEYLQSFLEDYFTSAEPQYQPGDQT

[36] = biological target: PRKD1 (human) (UniProt Q15139)
[37] = biological target: CDK5 CDK5R1 p35 (human) (UniProt Q00535+Q15078)
[38] = biological target: GRK6 (human) (UniProt P43250)
[39] = biological target: RAF1 (human) (UniProt P04049)
[40] = biological target: CDK4 CCND1 (human) (UniProt P24385+P11802)
[41] = biological target: CHEK1 (human) (UniProt O14757)
[42] = biological target: NTRK1 (human) (UniProt P04629)

Sequence of NEK7 (human) (Q8TDX7 whole entry, looked up): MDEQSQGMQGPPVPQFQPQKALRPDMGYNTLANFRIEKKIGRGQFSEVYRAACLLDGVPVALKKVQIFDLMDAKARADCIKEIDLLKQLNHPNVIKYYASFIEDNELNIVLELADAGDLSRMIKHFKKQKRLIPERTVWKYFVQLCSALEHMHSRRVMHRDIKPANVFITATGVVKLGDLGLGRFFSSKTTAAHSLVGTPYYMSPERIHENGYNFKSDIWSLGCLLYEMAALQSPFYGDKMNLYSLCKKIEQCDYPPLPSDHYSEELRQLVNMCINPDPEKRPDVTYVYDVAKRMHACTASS

SMILES: O=C(c1ccccc1)c1ccc(N2CCOCC2)cc1O
- residual activity [1]: 104%
- residual activity [2]: 118%
- residual activity [3]: 102%
- residual activity [4]: 92.7%
- residual activity [5]: 94.9%
- residual activity [6]: 98.3%
- residual activity [7]: 96.3%
- residual activity [8]: 104%
- residual activity [9]: 90.6%
- residual activity [10]: 102%
- residual activity [11]: 104%
- residual activity [12]: 104%
- residual activity [13]: 101%
- residual activity [14]: 94.1%
- residual activity [15]: 95.5%
- residual activity [16]: 100%
- residual activity [17]: 100%
- residual activity [18]: 86.4%
- residual activity [19]: 97.3%
- residual activity [20]: 108%
- residual activity [21]: 98.1%
- residual activity [22]: 94.3%
- residual activity [23]: 105%
- residual activity [24]: 105%
- residual activity [25]: 100%
- residual activity [26]: 95.1%
- residual activity [27]: 93.2%
- residual activity [28]: 103%
- residual activity [29]: 96.7%
- residual activity [30]: 112%
- residual activity [31]: 101%
- residual activity [32]: 103%
- residual activity [33]: 102%
- residual activity [34]: 101%
- residual activity [35]: 104%
- residual activity [36]: 102%
- residual activity [37]: 97%
- residual activity [38]: 99.4%
- residual activity [39]: 95.9%
- residual activity [40]: 96.1%
- residual activity [41]: 108%
- residual activity [42]: 99%

SMILES: COc1cccc(-c2cc(=O)c3ccccc3o2)c1N
- residual activity [1]: 94.7%
- residual activity [2]: 95.7%
- residual activity [3]: 89.5%
- residual activity [4]: 65.4%
- residual activity [5]: 98.1%
- residual activity [6]: 87.7%
- residual activity [7]: 76.2%
- residual activity [8]: 92.5%
- residual activity [9]: 108%
- residual activity [10]: 91.7%
- residual activity [11]: 95.4%
- residual activity [12]: 79.7%
- residual activity [13]: 93.9%
- residual activity [14]: 104%
- residual activity [15]: 98%
- residual activity [16]: 77.8%
- residual activity [17]: 122%
- residual activity [18]: 97.2%
- residual activity [19]: 96.4%
- residual activity [20]: 86.4%
- residual activity [21]: 101%
- residual activity [22]: 86.1%
- residual activity [23]: 95.9%
- residual activity [24]: 99.3%
- residual activity [25]: 99.1%
- residual activity [26]: 91.5%
- residual activity [27]: 95.9%
- residual activity [28]: 96.9%
- residual activity [29]: 109%
- residual activity [30]: 93.2%
- residual activity [31]: 96.9%
- residual activity [32]: 94.7%
- residual activity [33]: 107%
- residual activity [34]: 86.3%
- residual activity [35]: 94.8%
- residual activity [36]: 103%
- residual activity [37]: 101%
- residual activity [38]: 90.7%
- residual activity [39]: 91.5%
- residual activity [40]: 100%
- residual activity [41]: 103%
- residual activity [42]: 99.9%

SMILES: COc1cc2ncnc(Nc3ccc(O)c(Br)c3)c2cc1OC
- residual activity [1]: 101%
- residual activity [2]: 92%
- residual activity [3]: 74.7%
- residual activity [4]: 94.8%
- residual activity [5]: 68.2%
- residual activity [6]: 97.7%
- residual activity [7]: 87.3%
- residual activity [8]: 105%
- residual activity [9]: 18%
- residual activity [10]: 63%
- residual activity [11]: 104%
- residual activity [12]: 98.7%
- residual activity [13]: 75.5%
- residual activity [14]: 95%
- residual activity [15]: 80.1%
- residual activity [16]: 92.4%
- residual activity [17]: 102%
- residual activity [18]: 59.3%
- residual activity [19]: 76.2%
- residual activity [20]: 91.1%
- residual activity [21]: 67.7%
- residual activity [22]: 57.9%
- residual activity [23]: 95.1%
- residual activity [24]: 94.1%
- residual activity [25]: 89.7%
- residual activity [26]: 95.7%
- residual activity [27]: 83.7%
- residual activity [28]: 100%
- residual activity [29]: 104%
- residual activity [30]: 80.1%
- residual activity [31]: 78.6%
- residual activity [32]: 103%
- residual activity [33]: 100%
- residual activity [34]: 101%
- residual activity [35]: 57.8%
- residual activity [36]: 70.1%
- residual activity [37]: 99.6%
- residual activity [38]: 104%
- residual activity [39]: 92.1%
- residual activity [40]: 101%
- residual activity [41]: 92.8%
- residual activity [42]: 96.4%

SMILES: O=C1NC(=O)c2c1c1c3ccccc3[nH]c1c1[nH]c3cc(Br)ccc3c21
- residual activity [1]: 96.8%
- residual activity [2]: 63.7%
- residual activity [3]: 93.9%
- residual activity [4]: 68.1%
- residual activity [5]: 14.3%
- residual activity [6]: 103%
- residual activity [7]: 90.6%
- residual activity [8]: 101%
- residual activity [9]: 44%
- residual activity [10]: 96.2%
- residual activity [11]: 87.2%
- residual activity [12]: 96.9%
- residual activity [13]: 8.84%
- residual activity [14]: 95.8%
- residual activity [15]: 35.6%
- residual activity [16]: 38.7%
- residual activity [17]: 92.1%
- residual activity [18]: 29.3%
- residual activity [19]: 81.7%
- residual activity [20]: 76.2%
- residual activity [21]: 93.3%
- residual activity [22]: 86.3%
- residual activity [23]: 68.5%
- residual activity [24]: 44.6%
- residual activity [25]: 96.9%
- residual activity [26]: 63.1%
- residual activity [27]: 14%
- residual activity [28]: 77%
- residual activity [29]: 86%
- residual activity [30]: 7.57%
- residual activity [31]: 89.7%
- residual activity [32]: 95.2%
- residual activity [33]: 98.4%
- residual activity [34]: 49.5%
- residual activity [35]: 88.8%
- residual activity [36]: 51.9%
- residual activity [37]: 44.1%
- residual activity [38]: 108%
- residual activity [39]: 97.8%
- residual activity [40]: 84.9%
- residual activity [41]: 79.7%
- residual activity [42]: 82.2%
